Reference: ChEMBL document CHEMBL1135706, “Design and synthesis of motilin antagonists derived from the [1-4] fragment of porcine motilin” (J Med Chem, 2002)
Several values for one entry are separate records, joined by “and”; a condition that tells them apart may be missing. Identical values can stand only once. Bridge positions count the residues as written; N and C are the ends. Square brackets hold non-standard residues; d marks the D form. Peptide text beside a SMILES is read from it. * marks the point of attachment. Tyr(3-tBu) = CC(C)(C)c1cc(C[C@H](N)C(=O)O)ccc1O; Ahx = NCCCCCC(=O)O; GABA = NCCCC(=O)O; βAla = NCCC(=O)O; tBu = CC(C)(C)*

Assays:
Motilin receptor = Motilin receptor (Oryctolagus cuniculus, UniProt A5A4K8); experiment: Inhibition of the motilin receptor (MTL-R)
Chain of Motilin receptor (A5A4K8 whole entry): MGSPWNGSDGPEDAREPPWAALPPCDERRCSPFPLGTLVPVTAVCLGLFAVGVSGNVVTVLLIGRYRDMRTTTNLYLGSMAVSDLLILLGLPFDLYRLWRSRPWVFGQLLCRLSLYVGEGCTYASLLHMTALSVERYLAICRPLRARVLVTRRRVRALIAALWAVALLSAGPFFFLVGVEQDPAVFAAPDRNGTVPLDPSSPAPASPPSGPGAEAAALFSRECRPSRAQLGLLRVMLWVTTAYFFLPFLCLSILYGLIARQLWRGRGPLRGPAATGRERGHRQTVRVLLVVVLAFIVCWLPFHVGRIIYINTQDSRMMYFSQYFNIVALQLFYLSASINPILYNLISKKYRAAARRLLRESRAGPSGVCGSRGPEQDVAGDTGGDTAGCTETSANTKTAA

Oryctolagus cuniculus [1] = species: Oryctolagus cuniculus; experiment: Concentration of compound causing 50% inhibition of the smooth muscle contractile activity; assay type: functional, organism-based; details: Muscle tissue
Oryctolagus cuniculus [2] = species: Oryctolagus cuniculus; experiment: pA2 (Contractile potency) is the negative logarithm of the molar concentration of antagonist causing a 2-fold shift to the right of the concentration response curve for motilin; assay type: functional, organism-based; details: read-out: pA2 (converted)

CC(C)(C)c1cc(CC2NC(=O)[C@@H](NC(=O)C(N)Cc3ccccc3)CCCCNC(=O)CCNC2=O)ccc1O (stereo not given in full)
IC50 (Motilin receptor): 2.1 µM | EC50 (Oryctolagus cuniculus [1]): > 100 µM | Kb (Oryctolagus cuniculus [2]): 2.19 µM

CC(C)(C)c1cc(C[C@@H]2NC(=O)[C@@H](NC(=O)[C@@H](N)Cc3ccccc3)CCCCNC(=O)CCNC2=O)ccc1O
IC50 (Motilin receptor): 0.01 µM | EC50 (Oryctolagus cuniculus [1]): > 100 µM | Kb (Oryctolagus cuniculus [2]): 0.0427 µM

CC(C)(C)c1cc(C[C@H]2NC(=O)[C@@H](NC(=O)[C@@H](N)Cc3ccccc3)CCCCNC(=O)CCNC2=O)ccc1O
IC50 (Motilin receptor): 3.1 µM | EC50 (Oryctolagus cuniculus [1]): > 100 µM | Kb (Oryctolagus cuniculus [2]): 5.37 µM

CCC(C)Oc1ccc(C[C@@H]2NC(=O)[C@@H](NC(=O)[C@@H](N)Cc3ccccc3)CCCCNC(=O)CCNC2=O)cc1 (stereo not given in full)
IC50 (Motilin receptor): 0.48 µM

CC(C)(C)c1cc(C[C@@H]2NC(=O)[C@@H](NC(=O)[C@@H](N)Cc3ccccc3)CCCCNC(=O)CCNC2=O)cc(C(C)(C)C)c1O
IC50 (Motilin receptor): 0.46 µM | EC50 (Oryctolagus cuniculus [1]): > 10 µM

CC(C)(C)Oc1ccc(C[C@@H]2NC(=O)[C@@H](NC(=O)[C@@H](N)Cc3ccccc3)CCCCNC(=O)CCNC2=O)cc1 (H-FKY(tBu)[βAla]; lactam 2-C)
IC50 (Motilin receptor): 7.5 µM | EC50 (Oryctolagus cuniculus [1]): > 100 µM | Kb (Oryctolagus cuniculus [2]): 120 µM

N[C@@H](Cc1ccccc1)C(=O)N[C@H]1CCCCNC(=O)CCNC(=O)[C@H](Cc2ccc(O)cc2)NC1=O (H-FKY[βAla]; lactam 2-C)
IC50 (Motilin receptor): 25 µM and 42 µM | EC50 (Oryctolagus cuniculus [1]): > 100 µM | Kb (Oryctolagus cuniculus [2]): 89.1 µM

CC(C)(C)c1cc(C[C@@H]2NC(=O)[C@@H](NC(=O)[C@@H](N)Cc3ccccc3)CCCCNC(=O)CNC2=O)ccc1O (H-FK[Tyr(3-tBu)]G; lactam 2-C)
IC50 (Motilin receptor): 0.007 µM and 0.033 µM | EC50 (Oryctolagus cuniculus [1]): > 100 µM | Kb (Oryctolagus cuniculus [2]): 0.0468 µM

CC(C)(C)c1cc(C[C@@H]2NC(=O)[C@@H](NC(=O)[C@@H](N)Cc3ccccc3)CCCCNC(=O)CCCCCNC2=O)ccc1O (H-FK[Tyr(3-tBu)][Ahx]; lactam 2-C)
IC50 (Motilin receptor): 0.017 µM and 0.065 µM | EC50 (Oryctolagus cuniculus [1]): > 100 µM | Kb (Oryctolagus cuniculus [2]): 0.0832 µM

CC(C)(C)c1cc(C[C@@H]2NC(=O)[C@@H](NC(=O)[C@@H](N)Cc3ccccc3)CCCCNC(=O)CCCNC2=O)ccc1O (H-FK[Tyr(3-tBu)][GABA]; lactam 2-C)
IC50 (Motilin receptor): 0.033 µM and 0.059 µM | EC50 (Oryctolagus cuniculus [1]): > 100 µM | Kb (Oryctolagus cuniculus [2]): 0.0347 µM

CC(C)(C)c1cc(C[C@@H]2NC(=O)[C@@H](NC(=O)C(N)Cc3ccccc3)CCCCNC(=O)CCNC2=O)ccc1O (single isomer, unassigned)
IC50 (Motilin receptor): 1.8 µM | EC50 (Oryctolagus cuniculus [1]): > 100 µM | Kb (Oryctolagus cuniculus [2]): 2 µM
